Experimental data from ChEMBL document CHEMBL1201862, “PubChem BioAssay data set” (2004).
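Protocol summary: plate cells (96-well), add compound at 5 concentrations, incubate 48 h, interpolate endpoints linearly. Here, GI50 denotes the concentration required for 50% inhibition of growth.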 Active and inactive are the calls of the source. No stated cut-off is given here; in the data, active = GI50 up to about 1.1 µM and inactive = higher.

Experiments:
Test in all cases: NCI anticancer screen, dose series, 48 h
OVCAR-8 = test system: OVCAR-8
SK-MEL-28 = test system: SK-MEL-28
HOP-62 = test system: HOP-62
SF-295 = test system: SF-295
M14 = test system: M14
CCRF-CEM = test system: CCRF-CEM
OVCAR-5 = test system: OVCAR-5
SK-MEL-5 = test system: SK-MEL-5
RPMI-8226 = test system: RPMI-8226
HCT-116 = test system: HCT-116
SN12C = test system: SN12C
BT-549 = test system: BT-549
SR = test system: SR
SW-620 = test system: SW-620
HL-60 = test system: HL-60
HT-29 = test system: HT-29
SNB-75 = test system: SNB-75
COLO 205 = test system: COLO 205
NCI-H226 = test system: NCI-H226

| Structure (SMILES) | GI50 (OVCAR-8) | GI50 (SK-MEL-28) | GI50 (HOP-62) | GI50 (SF-295) | GI50 (M14) | GI50 (CCRF-CEM) | GI50 (OVCAR-5) | GI50 (SK-MEL-5) | GI50 (RPMI-8226) | GI50 (HCT-116) | GI50 (SN12C) | GI50 (BT-549) | GI50 (SR) | GI50 (SW-620) | GI50 (HL-60) | GI50 (HT-29) | GI50 (SNB-75) | GI50 (COLO 205) | GI50 (NCI-H226) |
| --- | --- | --- | --- | --- | --- | --- | --- | --- | --- | --- | --- | --- | --- | --- | --- | --- | --- | --- | --- |
| O=C1CN2CCN(CC2)CC(=O)Nc2ccc(cc2)S(=O)(=O)c2ccc(cc2)NC(=O)CN2CCN(CC2)CC(=O)Nc2ccc(cc2)S(=O)(=O)c2ccc(cc2)N1 | 38.8 µM (inactive) | 48.4 µM (inactive) | 44.4 µM (inactive) | > 88.7 µM (inactive) | 25.4 µM (inactive) | 0.31 µM (active) | 37.3 µM (inactive) | 31.8 µM (inactive) | 10.1 µM (inactive) | 14.8 µM (inactive) | > 97.5 µM (inactive) | 31.5 µM (inactive) | 4.56 µM (inactive) | 14.1 µM (inactive) | 0.557 µM (active) | 15 µM (inactive) | > 100 µM (inactive) | 40.7 µM (inactive) | 64.7 µM (inactive) |
| CCCCCC(O)C(O)CCC[C@H](O)[C@H]1CC[C@H]([C@H]2CC[C@H]([C@H](O)CCCCCCCCCCCCC3=C[C@H](C)OC3=O)O2)O1 (stereo not given in full) | 2.99 µM (inactive) | 2.56 µM (inactive) | 5.2 µM (inactive) | 1.97 µM (inactive) | 3.49 µM (inactive) | 1.09 µM (active) | 15.7 µM (inactive) | 1.22 µM (inactive) | 1.28 µM (inactive) | 1.36 µM (inactive) | 3.87 µM (inactive) | 8.93 µM (inactive) | 4.15 µM (inactive) | 3.44 µM (inactive) | 1.57 µM (inactive) | 2.63 µM (inactive) | 5.43 µM (inactive) | 3.98 µM (inactive) | 2.49 µM (inactive) |
| CC(=O)N1CC[N+](C)(CCCCN2c3ccccc3Sc3cc(N=[N+]=[N-])ccc32)CC1 | > 100 µM (inactive) | > 100 µM (inactive) | > 100 µM (inactive) | > 100 µM (inactive) | > 100 µM (inactive) | > 100 µM (inactive) | > 100 µM (inactive) | 62.8 µM (inactive) | > 100 µM (inactive) | > 100 µM (inactive) | > 100 µM (inactive) | > 100 µM (inactive) | > 100 µM (inactive) | > 100 µM (inactive) | 86.5 µM (inactive) | > 100 µM (inactive) | > 100 µM (inactive) | > 100 µM (inactive) | > 100 µM (inactive) |
| Cc1ccc2c(=O)c3c(O)c4c(cc3n(C)c2c1)OC(C)(C)C=C4 | > 10 µM (inactive) | > 10 µM (inactive) | > 10 µM (inactive) | > 10 µM (inactive) | > 10 µM (inactive) | > 10 µM (inactive) | > 10 µM (inactive) | > 10 µM (inactive) | > 10 µM (inactive) | > 10 µM (inactive) | > 10 µM (inactive) | > 10 µM (inactive) | > 10 µM (inactive) | > 10 µM (inactive) | > 10 µM (inactive) | > 10 µM (inactive) | > 10 µM (inactive) | > 10 µM (inactive) | > 10 µM (inactive) |
| CC(=O)NC1C(OCc2ccccc2)OC(CO)C(O)C1OCC(=O)N[C@@H](C)C(=O)N[C@H](CCC(=O)NCCCNc1c2ccccc2nc2cccc([N+](=O)[O-])c12)C(N)=O (stereo not given in full) | 0.0746 µM (active) | 0.205 µM (active) | 0.08 µM (active) | 0.15 µM (active) | 0.0341 µM (active) | 0.052 µM (active) | 0.0718 µM (active) | 0.0148 µM (active) | 0.0411 µM (active) | < 0.0127 µM (active) | 0.0397 µM (active) | 0.0845 µM (active) | 0.0249 µM (active) | 0.0172 µM (active) | 0.0559 µM (active) | < 0.0149 µM (active) | 0.122 µM (active) | 0.0118 µM (active) | 0.0586 µM (active) |
| O=C(Cc1nc2ccccc2[nH]c1=O)c1c[nH]c2ccccc12 | 14.1 µM (inactive) | – | 21 µM (inactive) | 9.04 µM (inactive) | 15.3 µM (inactive) | 4.3 µM (inactive) | 23.6 µM (inactive) | 10.8 µM (inactive) | 6.92 µM (inactive) | 13.8 µM (inactive) | 13.8 µM (inactive) | 12.2 µM (inactive) | 4.42 µM (inactive) | 24.9 µM (inactive) | 10.3 µM (inactive) | 6.08 µM (inactive) | 25.1 µM (inactive) | 11.1 µM (inactive) | 11.9 µM (inactive) |
| COc1ccc(C(=O)c2ccc(-n3cc(/C=C/[N+](=O)[O-])c4ccccc43)cc2)cc1 | 20.3 µM (inactive) | 28.1 µM (inactive) | 16.1 µM (inactive) | 47.9 µM (inactive) | 29 µM (inactive) | 2.58 µM (inactive) | > 76.4 µM (inactive) | 21.6 µM (inactive) | 3.08 µM (inactive) | 10.6 µM (inactive) | 16.8 µM (inactive) | 15.5 µM (inactive) | 8.81 µM (inactive) | 3.69 µM (inactive) | 13.7 µM (inactive) | 23.9 µM (inactive) | 91 µM (inactive) | 32.3 µM (inactive) | > 51.5 µM (inactive) |
| CN(C)C(=S)SCC(=O)Nc1ccccc1 | > 100 µM (inactive) | 80.4 µM (inactive) | > 100 µM (inactive) | > 100 µM (inactive) | > 100 µM (inactive) | > 100 µM (inactive) | > 100 µM (inactive) | > 100 µM (inactive) | 94.2 µM (inactive) | > 100 µM (inactive) | > 100 µM (inactive) | > 100 µM (inactive) | > 100 µM (inactive) | > 100 µM (inactive) | > 100 µM (inactive) | > 100 µM (inactive) | > 100 µM (inactive) | > 100 µM (inactive) | > 100 µM (inactive) |
| C[C@]12CCC(=O)C=C1CC[C@@H]1[C@@H]2CC[C@]2(C)C(=O)/C(=C\c3ccccc3)C[C@@H]12 | 21.7 µM (inactive) | > 46.8 µM (inactive) | 38.6 µM (inactive) | 29.9 µM (inactive) | 22.4 µM (inactive) | 2.8 µM (inactive) | 50 µM (inactive) | 14.2 µM (inactive) | 10.9 µM (inactive) | 11.4 µM (inactive) | 15.1 µM (inactive) | 25.8 µM (inactive) | 4.53 µM (inactive) | 22.8 µM (inactive) | 9.79 µM (inactive) | 19.6 µM (inactive) | 61.1 µM (inactive) | 24.2 µM (inactive) | 2.38 µM (inactive) |
| CCOC(=O)C1=C(C)N(C)C(=S)NC1c1cccc(O)c1 (stereo not given) | 32.6 µM (inactive) | 49.1 µM (inactive) | 77.4 µM (inactive) | 25.9 µM (inactive) | 29.4 µM (inactive) | 21.4 µM (inactive) | 64.1 µM (inactive) | 18.5 µM (inactive) | 18.7 µM (inactive) | 25.6 µM (inactive) | 31.8 µM (inactive) | 32.9 µM (inactive) | 16.9 µM (inactive) | 37.5 µM (inactive) | 17.8 µM (inactive) | 38.9 µM (inactive) | 24.7 µM (inactive) | 31.8 µM (inactive) | 47.9 µM (inactive) |
| COc1cc2c(cc1OCCCC(=O)Nc1cc(C(=O)Nc3cc(C(=O)Nc4cc(C(=O)NCCCN(C)C)n(C)c4)n(C)c3)n(C)c1)N=C[C@@H]1CCCN1C2=O | 1.79 µM (inactive) | 2.15 µM (inactive) | 3.56 µM (inactive) | 12.2 µM (inactive) | 1.66 µM (inactive) | 0.348 µM (active) | 3.16 µM (inactive) | 2.24 µM (inactive) | 1.67 µM (inactive) | 1.69 µM (inactive) | 1.2 µM (inactive) | 1.96 µM (inactive) | 0.367 µM (active) | 1.69 µM (inactive) | 1.16 µM (inactive) | 1.91 µM (inactive) | 3.3 µM (inactive) | 1.61 µM (inactive) | 5.56 µM (inactive) |
| CCN(CC)c1ccc2cc(C(N)=S)c(=N)oc2c1 | > 100 µM (inactive) | > 100 µM (inactive) | > 100 µM (inactive) | > 100 µM (inactive) | > 100 µM (inactive) | > 100 µM (inactive) | > 100 µM (inactive) | > 100 µM (inactive) | > 100 µM (inactive) | > 100 µM (inactive) | > 100 µM (inactive) | 37.9 µM (inactive) | > 100 µM (inactive) | > 100 µM (inactive) | > 100 µM (inactive) | > 100 µM (inactive) | > 100 µM (inactive) | > 100 µM (inactive) | > 100 µM (inactive) |
| CC(C)c1ccc(/C=C2\N=C(c3ccc([N+](=O)[O-])cc3)OC2=O)cc1 | > 100 µM (inactive) | > 100 µM (inactive) | > 100 µM (inactive) | > 100 µM (inactive) | > 100 µM (inactive) | 55.7 µM (inactive) | > 100 µM (inactive) | > 100 µM (inactive) | > 100 µM (inactive) | > 100 µM (inactive) | > 100 µM (inactive) | > 100 µM (inactive) | > 100 µM (inactive) | > 100 µM (inactive) | > 100 µM (inactive) | > 100 µM (inactive) | > 100 µM (inactive) | > 100 µM (inactive) | > 100 µM (inactive) |
| O=C(O)C1(Cc2ccc3c(c2)CCC3)Cc2ccccc2C1=O (stereo not given) | 83 µM (inactive) | > 100 µM (inactive) | 57.8 µM (inactive) | 33.6 µM (inactive) | > 100 µM (inactive) | 35.5 µM (inactive) | > 100 µM (inactive) | 79.4 µM (inactive) | 35.8 µM (inactive) | 39 µM (inactive) | 63.7 µM (inactive) | 37.8 µM (inactive) | 59 µM (inactive) | 75.7 µM (inactive) | 43.5 µM (inactive) | > 100 µM (inactive) | 38.8 µM (inactive) | 52.6 µM (inactive) | 91.4 µM (inactive) |
